Read-outs that look alike come from different tables or passages of the source. Positions of bridges follow the written chain, without caps; N, C: chain ends. Non-standard residues stand in square brackets, D forms with d. Residues, ends and D or L forms follow the SMILES beside them.
Assays:
E. coli iPGM [1] = target: T1, E. coli iPGM (Escherichia coli, UniProt P37689); assay: biochemical
H. sapiens dPGM = H. sapiens dPGM (Homo sapiens, UniProt P18669); assay: Gradient elution moving boundary electrophoresis (GEMBE) assay; type: biochemical; settings: 2.1 nM H. sapiens dPGM
Sequence of H. sapiens dPGM (P18669 whole entry): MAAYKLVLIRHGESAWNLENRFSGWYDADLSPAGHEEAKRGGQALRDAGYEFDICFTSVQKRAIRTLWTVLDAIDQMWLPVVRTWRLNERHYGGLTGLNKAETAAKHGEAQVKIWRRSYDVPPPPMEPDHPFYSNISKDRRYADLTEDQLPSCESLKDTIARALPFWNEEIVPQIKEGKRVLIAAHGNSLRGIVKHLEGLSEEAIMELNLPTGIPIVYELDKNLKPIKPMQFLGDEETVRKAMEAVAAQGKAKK

C. elegans iPGM = target: T2, C. elegans iPGM (Caenorhabditis elegans, UniProt G5EFZ1); assay: PGM enzyme-coupled bioluminescent end point assay (Kinase-Glo Plus); type: biochemical
T2 sequence (G5EFZ1 1-539): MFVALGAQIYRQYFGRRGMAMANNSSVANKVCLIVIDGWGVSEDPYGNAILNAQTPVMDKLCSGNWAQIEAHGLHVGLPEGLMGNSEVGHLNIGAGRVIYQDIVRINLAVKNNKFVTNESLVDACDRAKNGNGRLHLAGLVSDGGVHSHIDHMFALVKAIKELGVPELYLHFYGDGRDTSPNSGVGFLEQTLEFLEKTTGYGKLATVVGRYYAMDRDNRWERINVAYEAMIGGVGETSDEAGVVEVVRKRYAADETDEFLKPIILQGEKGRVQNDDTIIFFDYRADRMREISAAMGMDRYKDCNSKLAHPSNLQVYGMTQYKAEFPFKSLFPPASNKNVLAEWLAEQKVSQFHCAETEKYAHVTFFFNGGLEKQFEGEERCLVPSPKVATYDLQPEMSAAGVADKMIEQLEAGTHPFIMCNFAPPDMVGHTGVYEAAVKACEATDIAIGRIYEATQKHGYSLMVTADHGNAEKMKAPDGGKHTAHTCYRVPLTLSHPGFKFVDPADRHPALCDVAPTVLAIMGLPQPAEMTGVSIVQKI

E. coli iPGM [2] = target: T1, E. coli iPGM; assay: biochemical; remark: listed apart in the source
B. malayi iPGM = B. malayi iPGM (Brugia malayi, UniProt Q4VWF8); assay: biochemical; settings: pIC50 B. malayi iPGM
Sequence of B. malayi iPGM (Q4VWF8 whole entry, looked up): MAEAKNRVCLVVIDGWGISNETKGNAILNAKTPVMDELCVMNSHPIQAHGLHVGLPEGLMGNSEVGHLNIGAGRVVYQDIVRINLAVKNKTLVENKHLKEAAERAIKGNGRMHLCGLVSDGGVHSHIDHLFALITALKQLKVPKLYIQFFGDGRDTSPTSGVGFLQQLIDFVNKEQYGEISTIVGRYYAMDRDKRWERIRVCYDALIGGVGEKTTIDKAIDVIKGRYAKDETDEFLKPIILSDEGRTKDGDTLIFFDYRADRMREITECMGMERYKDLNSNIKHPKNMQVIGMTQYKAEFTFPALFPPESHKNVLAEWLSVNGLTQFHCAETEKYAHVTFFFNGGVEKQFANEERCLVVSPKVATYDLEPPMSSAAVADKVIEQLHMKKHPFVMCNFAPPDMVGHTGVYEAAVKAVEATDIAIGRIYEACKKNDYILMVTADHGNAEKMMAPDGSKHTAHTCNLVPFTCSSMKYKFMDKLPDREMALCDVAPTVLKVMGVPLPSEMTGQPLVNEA

O. volvulus iPGM = O. volvulus iPGM (Onchocerca volvulus, UniProt I6LDA6); assay: biochemical; settings: pIC50 O. volvulus iPGM
Sequence of O. volvulus iPGM (I6LDA6 whole entry, looked up): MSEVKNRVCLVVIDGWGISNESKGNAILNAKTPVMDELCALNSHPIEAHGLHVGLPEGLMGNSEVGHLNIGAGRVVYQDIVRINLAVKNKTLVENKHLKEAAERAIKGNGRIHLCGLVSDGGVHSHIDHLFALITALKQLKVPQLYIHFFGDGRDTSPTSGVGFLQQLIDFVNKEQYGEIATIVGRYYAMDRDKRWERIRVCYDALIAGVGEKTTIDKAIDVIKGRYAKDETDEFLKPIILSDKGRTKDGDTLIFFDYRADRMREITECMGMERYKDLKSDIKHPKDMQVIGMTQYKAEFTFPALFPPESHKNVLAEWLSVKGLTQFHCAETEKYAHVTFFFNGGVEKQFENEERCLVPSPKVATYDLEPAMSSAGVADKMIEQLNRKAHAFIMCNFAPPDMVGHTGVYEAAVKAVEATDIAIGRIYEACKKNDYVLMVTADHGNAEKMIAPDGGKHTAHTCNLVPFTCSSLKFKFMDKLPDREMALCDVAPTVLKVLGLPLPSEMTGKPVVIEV

[3] = tested on: iPGM orthologues and dPGM isozymes; type: biochemical
[4] = target: E. coli cofactor-independent phosphoglycerate mutase (iPGM) (E. coli) (UniProt P37689)
Sequence of E. coli cofactor-independent phosphoglycerate mutase (iPGM) (E. coli) (P37689 whole entry): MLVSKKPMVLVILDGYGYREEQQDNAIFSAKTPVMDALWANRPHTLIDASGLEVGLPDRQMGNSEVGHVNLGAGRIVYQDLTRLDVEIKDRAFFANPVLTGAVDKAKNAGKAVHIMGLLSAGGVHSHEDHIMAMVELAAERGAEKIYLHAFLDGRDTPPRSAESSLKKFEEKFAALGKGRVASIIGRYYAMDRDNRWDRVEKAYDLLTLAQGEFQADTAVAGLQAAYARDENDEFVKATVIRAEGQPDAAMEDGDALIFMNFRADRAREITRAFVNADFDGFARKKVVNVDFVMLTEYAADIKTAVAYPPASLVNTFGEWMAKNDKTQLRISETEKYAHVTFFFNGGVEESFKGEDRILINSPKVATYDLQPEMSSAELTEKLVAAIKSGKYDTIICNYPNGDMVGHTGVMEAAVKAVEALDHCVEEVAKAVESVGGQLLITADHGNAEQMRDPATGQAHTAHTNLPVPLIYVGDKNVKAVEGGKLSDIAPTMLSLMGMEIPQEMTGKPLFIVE

T1 sequence (P37689 whole entry, looked up): as the sequence (P37689 whole entry) above

Compound	IC50 (C. elegans iPGM; pIC50 C. elegans iPGM) [µM]	IC50 (E. coli iPGM [2]; pIC50 E. coli iPGM) [µM]	IC50 (B. malayi iPGM) [µM]	IC50 (O. volvulus iPGM) [µM]	other results
CC(C)C[C@H](NC(=O)[C@H](Cc1ccc(O)cc1)NC(=O)[C@@H]1CSCC(=O)N[C@H](Cc2ccc(O)cc2)C(=O)N[C@@H](CC(=O)O)C(=O)N[C@@H](Cc2ccc(O)cc2)C(=O)N2CCC[C@H]2C(=O)NCC(=O)N[C@@H](CC(=O)O)C(=O)N[C@@H](Cc2ccc(O)cc2)C(=O)N1)C(=O)N[C@@H](Cc1ccc(O)cc1)C(=O)NCC(=O)N[C@H](C(=O)N[C@@H](CS)C(=O)NCC(N)=O)[C@@H](C)O [Ce-2]	0.000251	0.00055	–	–	IC50 (E. coli iPGM [1]): 0.00324 µM; pIC50 from the GEMBE assay (H. sapiens dPGM): no apparent activity; IC50 (C. elegans iPGM; pIC50, apparent C. elegans iPGM): 0.00224 µM; IC50 (E. coli iPGM [2]; pIC50, apparent E. coli iPGM): 0.00166 µM
CC(C)C[C@H](NC(=O)[C@H](Cc1ccc(O)cc1)NC(=O)[C@@H]1CSCC(=O)N[C@H](Cc2ccc(O)cc2)C(=O)N[C@@H](CC(=O)O)C(=O)N[C@@H](Cc2ccc(O)cc2)C(=O)N2CCC[C@H]2C(=O)NCC(=O)N[C@@H](CC(=O)O)C(=O)N[C@@H](Cc2ccc(O)cc2)C(=O)N1)C(=O)N[C@@H](Cc1ccc(O)cc1)C(=O)NCC(=O)N[C@H](C(N)=O)[C@@H](C)O [Ce-2b]	0.0158	0.0105	0.692	2.45	–
CC(C)C[C@H](NC(=O)[C@H](Cc1ccc(O)cc1)NC(=O)[C@@H]1CSCC(=O)N[C@H](Cc2ccc(O)cc2)C(=O)N[C@@H](CC(=O)O)C(=O)N[C@@H](Cc2ccc(O)cc2)C(=O)N2CCC[C@H]2C(=O)NCC(=O)N[C@@H](CC(=O)O)C(=O)N[C@@H](Cc2ccc(O)cc2)C(=O)N1)C(=O)N[C@@H](Cc1ccc(O)cc1)C(=O)NCC(N)=O [Ce-2c]	0.0229	0.0105	1.17	3.89	–
CC(C)C[C@H](NC(=O)[C@H](Cc1ccc(O)cc1)NC(=O)[C@@H]1CSCC(=O)N[C@H](Cc2ccc(O)cc2)C(=O)N[C@@H](CC(=O)O)C(=O)N[C@@H](Cc2ccc(O)cc2)C(=O)N2CCC[C@H]2C(=O)NCC(=O)N[C@@H](CC(=O)O)C(=O)N[C@@H](Cc2ccc(O)cc2)C(=O)N1)C(N)=O [Ce-2e] ({CH2CO}-[dY]DYPGDYCYL-NH2; thioether N-8)	0.0692	0.0537	2.95	–	potency decrease [3]: ~100 fold
Ce-2S (Ce-2 with Cys14Ser) (peptide)	–	–	–	–	IC50 of inhibition of PGM activity, enzyme-coupled bioluminescent assay [4]: 0.01 µM
^Ac-DYDYPGDYSYLY-NH2 [Ce-L2d, linear form of Ce-2d]	–	–	–	–	inhibitory activity on the PGM panel, in words [3]: completely inactive on all iPGMs

Source: paper PMC5382265, “Macrocycle peptides delineate locked-open inhibition mechanism for microorganism phosphoglycerate mutases” (Nature Communications, 2017)
